According to US12319664B2, “Herbicidally active 3-phenylisoxazoline-5-carboxamides of cyclopentenylcarboxylic acid derivatives” (Bayer Aktiengesellschaft, priority 2018, dated 2025):

Experiments:
ALOMY = assay: Post-emergence herbicidal action against ALOMY; assay type: in vivo, Alopecurus myosuroides; settings: application rate 80 g/ha, rated visually after about 3 weeks
Summary of the method: (§1)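 Spray-treated at one-leaf stage, 2 to 3 weeks after sowing; greenhouse, sandy loam. Formulation WP or EC, 0.5% additive, 600 l/ha. Readout: visual percent activity at about 3 weeks, untreated = 0%.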

AVEFA = assay: Post-emergence herbicidal action against AVEFA; assay type: in vivo, Avena fatua; settings: application rate 80 g/ha, rated visually after about 3 weeks
Summary of the method: as §1

ECHCG = assay: Post-emergence herbicidal action against ECHCG; assay type: in vivo, Echinochloa crus-galli; settings: application rate 80 g/ha, rated visually after about 3 weeks
Summary of the method: as §1

LOLRI = assay: Post-emergence herbicidal action against LOLRI; assay type: in vivo, Lolium rigidum; settings: application rate 80 g/ha, rated visually after about 3 weeks
Summary of the method: as §1

SETVI = assay: Post-emergence herbicidal action against SETVI; assay type: in vivo, Setaria viridis; settings: application rate 80 g/ha, rated visually after about 3 weeks
Summary of the method: as §1

ABUTH = assay: Post-emergence herbicidal action against ABUTH; assay type: in vivo, Abutilon theophrasti; settings: application rate 80 g/ha, rated visually about 3 weeks after treatment
Summary of the method: as §1

AMARE = assay: Post-emergence herbicidal action against AMARE; assay type: in vivo, Amaranthus retroflexus; settings: application rate 80 g/ha, rated visually about 3 weeks after treatment
Summary of the method: as §1

MATIN = assay: Post-emergence herbicidal action against MATIN; assay type: in vivo, Matricaria inodora; settings: application rate 80 g/ha, rated visually about 3 weeks after treatment
Description: [table] 2. Post-emergence herbicidal action against harmful plants and crop plant compatibility Seeds of monocotyledonous and dicotyledonous weeds and crop plants are placed in sandy loam in plastic or wood-fibre pots, covered with soil and cultivated in a greenhouse under controlled growth conditions. 2 to 3 weeks after sowing, the test plants are treated at the one-leaf stage. The compounds of the invention, formulated in the form of wettable powders (WP) or as emulsion concentrates (EC), are then sprayed onto the green parts of the plants as aqueous suspension or emulsion with addition of 0.5% additive at a water application rate of 600 l/ha (converted). After the test plants have been kept in the greenhouse under optimum growth conditions for about 3 weeks, the activity of the preparations is rated visually in comparison to untreated controls. For example, 100% activity=the plants have died, 0% activity=like control plants.

POLCO = assay: Post-emergence herbicidal action against POLCO; assay type: in vivo, Polygonum convolvulus; settings: application rate 80 g/ha, rated visually about 3 weeks after treatment
Summary of the method: as §1

STEME = assay: Post-emergence herbicidal action against STEME; assay type: in vivo, Stellaria media; settings: application rate 80 g/ha, rated visually about 3 weeks after treatment
Summary of the method: as §1

VIOTR = assay: Post-emergence herbicidal action against VIOTR; assay type: in vivo, Viola tricolor; settings: application rate 80 g/ha, rated visually about 3 weeks after treatment
Summary of the method: as §1

VERPE = assay: Post-emergence herbicidal action against VERPE; assay type: in vivo, Veronica persica; settings: application rate 80 g/ha
Summary of the method: as §1

HORMU = assay: Post-emergence herbicidal action against HORMU; assay type: in vivo, Hordeum murinum; settings: application rate 80 g/ha
Summary of the method: as §1

PHBPU = assay: Post-emergence herbicidal action against PHBPU; assay type: in vivo, Pharbitis purpurea; settings: application rate 80 g/ha, rated visually about 3 weeks after treatment
Summary of the method: as §1

Cc1cc(Cl)cc(C2=NOC(C(=O)N[C@H]3C=C[C@@H](C(=O)OCCCl)C3)(C(F)(F)F)C2)c1 (stereo partly shown) [Example I-028]
80%: Herbicidal action against [%] ECHCG (ECHCG) | Herbicidal action against [%] ABUTH (ABUTH) | Herbicidal action against [%] MATIN (MATIN) | Herbicidal action against [%] STEME (STEME) | Herbicidal action against [%] VIOTR (VIOTR) | Herbicidal action against [%] VERPE (VERPE) | Herbicidal action against [%] HORMU (HORMU)
100%: Herbicidal action against [%] AVEFA (AVEFA) | Herbicidal action against [%] POLCO (POLCO)
90%: Herbicidal action against [%] ALOMY (ALOMY) | Herbicidal action against [%] LOLRI (LOLRI) | Herbicidal action against [%] SETVI (SETVI) | Herbicidal action against [%] AMARE (AMARE)

C=CC1(C(=O)NC2C=CC(C(=O)OCc3ccccc3)C2)CC(c2cc(F)cc(F)c2)=NO1 (mixture of isomers) [Example I-033]
90%: Herbicidal action against [%] ALOMY (ALOMY) | Herbicidal action against [%] AVEFA (AVEFA) | Herbicidal action against [%] ECHCG (ECHCG) | Herbicidal action against [%] LOLRI (LOLRI) | Herbicidal action against [%] SETVI (SETVI) | Herbicidal action against [%] AMARE (AMARE) | Herbicidal action against [%] MATIN (MATIN)
80%: Herbicidal action against [%] ABUTH (ABUTH) | Herbicidal action against [%] PHBPU (PHBPU) | Herbicidal action against [%] STEME (STEME) | Herbicidal action against [%] VERPE (VERPE) | Herbicidal action against [%] HORMU (HORMU)
100%: Herbicidal action against [%] POLCO (POLCO)

Cc1cc(F)cc(C2=NOC(C(=O)NC3C=CC(C(=O)OCC(F)(F)F)C3)(C(F)(F)F)C2)c1 (mixture of isomers) [Example I-032]
100%: Herbicidal action against [%] AVEFA (AVEFA) | Herbicidal action against [%] POLCO (POLCO)
80%: Herbicidal action against [%] MATIN (MATIN) | Herbicidal action against [%] VIOTR (VIOTR) | Herbicidal action against [%] VERPE (VERPE) | Herbicidal action against [%] HORMU (HORMU)
90%: Herbicidal action against [%] ALOMY (ALOMY) | Herbicidal action against [%] LOLRI (LOLRI) | Herbicidal action against [%] SETVI (SETVI) | Herbicidal action against [%] AMARE (AMARE)

COC(=O)[C@@H]1C=C[C@H](NC(=O)C2(C(F)(F)F)CC(c3cc(C)cc(F)c3)=NO2)C1 (stereo partly shown) [Example I-024]
90%: Herbicidal action against [%] ALOMY (ALOMY) | Herbicidal action against [%] ECHCG (ECHCG) | Herbicidal action against [%] LOLRI (LOLRI) | Herbicidal action against [%] AMARE (AMARE) | Herbicidal action against [%] POLCO (POLCO)
100%: Herbicidal action against [%] AVEFA (AVEFA)
80%: Herbicidal action against [%] SETVI (SETVI) | Herbicidal action against [%] ABUTH (ABUTH) | Herbicidal action against [%] MATIN (MATIN) | Herbicidal action against [%] VIOTR (VIOTR) | Herbicidal action against [%] VERPE (VERPE) | Herbicidal action against [%] HORMU (HORMU)

CCOC(=O)C1C=CC(NC(=O)C2(C(F)(F)F)CC(c3cc(C)cc(C(F)(F)F)c3)=NO2)C1 (mixture of isomers) [Example I-036]
90%: Herbicidal action against [%] ALOMY (ALOMY) | Herbicidal action against [%] LOLRI (LOLRI) | Herbicidal action against [%] POLCO (POLCO) | Herbicidal action against [%] VIOTR (VIOTR)
80%: Herbicidal action against [%] AVEFA (AVEFA) | Herbicidal action against [%] ABUTH (ABUTH) | Herbicidal action against [%] AMARE (AMARE) | Herbicidal action against [%] MATIN (MATIN) | Herbicidal action against [%] VERPE (VERPE) | Herbicidal action against [%] HORMU (HORMU)

C=CC1(C(=O)NC2C=CC(C(=O)NS(=O)(=O)CCC)C2)CC(c2cc(F)cc(F)c2)=NO1 (mixture of isomers) [II-14]
100%: Herbicidal action against [%] ALOMY (ALOMY) | Herbicidal action against [%] AVEFA (AVEFA) | Herbicidal action against [%] ECHCG (ECHCG) | Herbicidal action against [%] LOLRI (LOLRI)
90%: Herbicidal action against [%] SETVI (SETVI) | Herbicidal action against [%] AMARE (AMARE) | Herbicidal action against [%] MATIN (MATIN) | Herbicidal action against [%] POLCO (POLCO) | Herbicidal action against [%] VIOTR (VIOTR) | Herbicidal action against [%] VERPE (VERPE) | Herbicidal action against [%] HORMU (HORMU)

COC(=O)[C@@H]1C=C[C@H](NC(=O)C2(C(F)(F)F)CC(c3cc(C)cc(Cl)c3)=NO2)C1 (stereo partly shown) [Example I-027]
90%: Herbicidal action against [%] ALOMY (ALOMY) | Herbicidal action against [%] AVEFA (AVEFA) | Herbicidal action against [%] LOLRI (LOLRI) | Herbicidal action against [%] SETVI (SETVI) | Herbicidal action against [%] MATIN (MATIN)
80%: Herbicidal action against [%] ECHCG (ECHCG) | Herbicidal action against [%] ABUTH (ABUTH) | Herbicidal action against [%] AMARE (AMARE) | Herbicidal action against [%] STEME (STEME) | Herbicidal action against [%] VIOTR (VIOTR) | Herbicidal action against [%] VERPE (VERPE) | Herbicidal action against [%] HORMU (HORMU)

COC(=O)C1C=CC(NC(=O)C2(C(F)(F)F)CC(c3cc(Cl)cc(Cl)c3)=NO2)C1 (mixture of isomers) [Example I-039]
90%: Herbicidal action against [%] AVEFA (AVEFA) | Herbicidal action against [%] ECHCG (ECHCG) | Herbicidal action against [%] STEME (STEME)
80%: Herbicidal action against [%] SETVI (SETVI) | Herbicidal action against [%] ABUTH (ABUTH) | Herbicidal action against [%] AMARE (AMARE) | Herbicidal action against [%] MATIN (MATIN) | Herbicidal action against [%] PHBPU (PHBPU) | Herbicidal action against [%] VERPE (VERPE) | Herbicidal action against [%] HORMU (HORMU)
100%: Herbicidal action against [%] ALOMY (ALOMY) | Herbicidal action against [%] LOLRI (LOLRI)

CC1(C(=O)N[C@H]2C=C[C@@H](C(=O)OCc3ccccc3)C2)CC(c2cc(F)cc(F)c2)=NO1 (stereo partly shown) [Example I-008]
100%: Herbicidal action against [%] ALOMY (ALOMY)
90%: Herbicidal action against [%] AVEFA (AVEFA) | Herbicidal action against [%] ECHCG (ECHCG) | Herbicidal action against [%] LOLRI (LOLRI) | Herbicidal action against [%] SETVI (SETVI) | Herbicidal action against [%] ABUTH (ABUTH) | Herbicidal action against [%] AMARE (AMARE) | Herbicidal action against [%] MATIN (MATIN) | Herbicidal action against [%] PHBPU (PHBPU) | Herbicidal action against [%] POLCO (POLCO) | Herbicidal action against [%] STEME (STEME) | Herbicidal action against [%] VERPE (VERPE) | Herbicidal action against [%] HORMU (HORMU)

CC1(C(=O)N[C@H]2C=C[C@@H](C(=O)OCCCl)C2)CC(c2cc(F)cc(F)c2)=NO1 (stereo partly shown) [Example I-009]
90%: Herbicidal action against [%] ALOMY (ALOMY) | Herbicidal action against [%] AVEFA (AVEFA) | Herbicidal action against [%] ECHCG (ECHCG) | Herbicidal action against [%] LOLRI (LOLRI) | Herbicidal action against [%] SETVI (SETVI) | Herbicidal action against [%] ABUTH (ABUTH) | Herbicidal action against [%] MATIN (MATIN) | Herbicidal action against [%] PHBPU (PHBPU) | Herbicidal action against [%] POLCO (POLCO) | Herbicidal action against [%] STEME (STEME) | Herbicidal action against [%] VERPE (VERPE) | Herbicidal action against [%] HORMU (HORMU)

CCOC(=O)[C@@H]1C=C[C@H](NC(=O)C2(C(F)(F)F)CC(c3cc(C)cc(F)c3)=NO2)C1 (stereo partly shown) [Example I-022]
90%: Herbicidal action against [%] ABUTH (ABUTH)
100%: Herbicidal action against [%] ALOMY (ALOMY) | Herbicidal action against [%] AVEFA (AVEFA) | Herbicidal action against [%] LOLRI (LOLRI) | Herbicidal action against [%] SETVI (SETVI) | Herbicidal action against [%] AMARE (AMARE) | Herbicidal action against [%] POLCO (POLCO)
80%: Herbicidal action against [%] ECHCG (ECHCG) | Herbicidal action against [%] MATIN (MATIN) | Herbicidal action against [%] VIOTR (VIOTR) | Herbicidal action against [%] VERPE (VERPE) | Herbicidal action against [%] HORMU (HORMU)
